Among the data in PubChem BioAssay (NCI) are GI50 and TGI values, retold here.

Some test systems named below: HT29 colon; SF-539 CNS; NCI-H522 lung; TK-10 renal; IGROV1 ovarian; UACC-257 melanoma; LOX IMVI melanoma; U251 CNS; SN12C renal; ACHN renal.
Holding throughout (experiment): inhibition of tumour cell growth, NCI panel, 48 h

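Compound exposure: 48 hours, 5 concentrations, 96-well plates. The concentration for 50% growth inhibition is given as GI50. TGI is the concentration that stops growth completely.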

In the case of `Cc1cc(S(N)(=O)=O)c(S/C(=N\Nc2ccc([N+](=O)[O-])cc2)c2ccc3ccccc3c2)cc1Cl`, the GI50 in the experiment on HT29 colon is 73.2 µM; in the experiment with SF-539 CNS, 4.1 µM; in the experiment on NCI-H522 lung, 22.9 µM; in the experiment with TK-10 renal, 7.46 µM; in the experiment on IGROV1 ovarian it was 54.3 µM; with UACC-257 melanoma it was 30.1 µM. Besides, the GI50 is 20.3 µM in the experiment on LOX IMVI melanoma, 19.7 µM in the experiment on U251 CNS, 18.6 µM in the experiment on SN12C renal and 17 µM in the experiment on ACHN renal. Further, the TGI is over 100 µM in the experiment on HT29 colon; 18.7 µM with SF-539 CNS; over 100 µM in the experiment on NCI-H522 lung; 31.7 µM in the experiment with TK-10 renal; over 100 µM in the experiment with IGROV1 ovarian; 78.3 µM with UACC-257 melanoma. Further, the TGI was found to be 40.9 µM in the experiment with LOX IMVI melanoma, 59.4 µM with U251 CNS, 44.1 µM in the experiment on SN12C renal and 30.7 µM in the experiment on ACHN renal.

With `O=C(Nc1cccc(-n2cc(-c3ccncc3)c(-c3ccc(O)c(Cl)c3)n2)c1)c1ccc(Cl)c(Cl)c1`, the GI50 was 26 µM in the experiment on HT29 colon; 3.47 µM with SF-539 CNS; 4.13 µM with NCI-H522 lung; 43.2 µM in the experiment with TK-10 renal; 25.5 µM in the experiment with IGROV1 ovarian; 4.12 µM with UACC-257 melanoma. Further, the GI50 in the experiment on LOX IMVI melanoma is 7.21 µM; in the experiment with U251 CNS it was 4.03 µM; in the experiment with SN12C renal, 23.1 µM; in the experiment on ACHN renal, 4.62 µM. Also, the TGI is over 100 µM in the experiment on HT29 colon; over 100 µM in the experiment on SF-539 CNS; 74.4 µM with NCI-H522 lung; over 100 µM in the experiment with TK-10 renal; over 100 µM in the experiment with IGROV1 ovarian; 31.3 µM with UACC-257 melanoma. Also, the TGI in the experiment on LOX IMVI melanoma is over 100 µM; with U251 CNS, 34.2 µM; with SN12C renal it was over 100 µM; with ACHN renal it was over 100 µM.

With `COc1ccc(Oc2cc(NCCC(F)(F)F)c3ncc(-c4ccc(C(=O)NC5CC5)c(C)c4)n3n2)c(F)c1F`, the GI50 in the experiment with HT29 colon was 0.506 µM; with SF-539 CNS, 0.758 µM; in the experiment with NCI-H522 lung it was 0.381 µM; in the experiment on TK-10 renal it was 4.61 µM; in the experiment on IGROV1 ovarian it was 0.484 µM; with UACC-257 melanoma, 9.26 µM. Besides, the GI50 in the experiment on LOX IMVI melanoma was 0.125 µM; with U251 CNS, 0.597 µM; with SN12C renal it was 0.527 µM; in the experiment on ACHN renal it was 0.304 µM. For the same compound, the TGI in the experiment with HT29 colon was over 100 µM; with SF-539 CNS it was 21.9 µM; with NCI-H522 lung, over 64.8 µM; with TK-10 renal, over 100 µM; in the experiment on IGROV1 ovarian, over 68.3 µM; in the experiment with UACC-257 melanoma it was 59.5 µM. The TGI in the experiment on LOX IMVI melanoma is over 100 µM; with U251 CNS it was 57.8 µM; in the experiment on SN12C renal it was over 100 µM; in the experiment with ACHN renal, 30.2 µM.

Regarding `COC(=O)[C@@H](OC)[C@@H]1Cc2cc3cc(OC4CC(OC5CC(O)C(O)C(C)O5)C(O)C(C)O4)c(C)c(O)c3c(O)c2C(=O)[C@H]1OC1CC(OC2CC(OC3CC(C)(O)C(O)C(C)O3)C(O)C(C)O2)C(O)C(C)O1` (some centres undefined), the GI50 was 0.039 µM in the experiment on HT29 colon; 0.025 µM in the experiment on SF-539 CNS; 0.0358 µM in the experiment with NCI-H522 lung; 0.0438 µM in the experiment on TK-10 renal; 0.0299 µM with IGROV1 ovarian; 0.0507 µM in the experiment with UACC-257 melanoma. The GI50 with LOX IMVI melanoma was 0.026 µM; in the experiment on U251 CNS it was 0.0385 µM; with SN12C renal, 0.0389 µM; in the experiment on ACHN renal it was 0.0313 µM. The TGI in the experiment on SF-539 CNS is 0.082 µM; with NCI-H522 lung, 0.172 µM; in the experiment with TK-10 renal, over 16.5 µM; in the experiment on IGROV1 ovarian, over 16.5 µM; in the experiment with UACC-257 melanoma, 0.497 µM; in the experiment with LOX IMVI melanoma, over 5.38 µM. Further, the TGI in the experiment with U251 CNS, in the experiment on SN12C renal and in the experiment on ACHN renal was over 16.5 µM in each case.

As for `Cc1ncc(-c2ccnc(Nc3ccc(S(C)(=O)=O)cc3)n2)n1C(C)C`, the GI50 is 1.29 µM in the experiment on HT29 colon; 0.56 µM with SF-539 CNS; 1.52 µM with NCI-H522 lung; 1.37 µM in the experiment with TK-10 renal; 0.758 µM with IGROV1 ovarian; 1.94 µM in the experiment on UACC-257 melanoma. Besides, the GI50 in the experiment on LOX IMVI melanoma was 0.537 µM; with U251 CNS, 1.11 µM; in the experiment on SN12C renal, 1.34 µM; in the experiment with ACHN renal, 0.603 µM. Besides, the TGI is over 10 µM with HT29 colon; 2.71 µM in the experiment on SF-539 CNS; 5.29 µM with NCI-H522 lung; over 10 µM with TK-10 renal; over 7.91 µM in the experiment on IGROV1 ovarian; 5.62 µM with UACC-257 melanoma. Also, the TGI is 9.94 µM with LOX IMVI melanoma, over 10 µM in the experiment on U251 CNS, 9.84 µM in the experiment on SN12C renal and over 9.54 µM in the experiment on ACHN renal.

As to `CN(C)c1ccc(C(=C2C=CC(=[N+](C)C)C=C2)c2ccccc2Cl)cc1`, the GI50 in the experiment with HT29 colon is 0.167 µM; in the experiment with SF-539 CNS, 0.259 µM; in the experiment with NCI-H522 lung it was 0.268 µM; in the experiment on TK-10 renal, 0.345 µM; in the experiment with IGROV1 ovarian, 0.365 µM; with UACC-257 melanoma, 0.528 µM. In addition, the GI50 is 0.224 µM in the experiment on LOX IMVI melanoma, 0.127 µM in the experiment with U251 CNS, 0.239 µM in the experiment on SN12C renal and 0.4 µM in the experiment on ACHN renal. Moreover, the TGI is 1.03 µM in the experiment with HT29 colon; 0.951 µM in the experiment with SF-539 CNS; 0.925 µM in the experiment on NCI-H522 lung; 1.41 µM in the experiment with TK-10 renal; 1.34 µM in the experiment with IGROV1 ovarian; 1.73 µM in the experiment with UACC-257 melanoma. Moreover, the TGI was 0.836 µM in the experiment on LOX IMVI melanoma, 1.14 µM in the experiment on U251 CNS, 1.67 µM in the experiment on SN12C renal and 1.61 µM in the experiment with ACHN renal.

As for `N#C/C(=C\c1cccc2cnccc12)N1N=NC2C=CC=CC21` (centres undefined), the GI50 is 3.5 µM in the experiment with HT29 colon; 2.65 µM with SF-539 CNS; 2 µM in the experiment with NCI-H522 lung; 3.98 µM with TK-10 renal; 2.7 µM with IGROV1 ovarian; 4.54 µM in the experiment on UACC-257 melanoma. In addition, the GI50 with LOX IMVI melanoma was 3.01 µM; in the experiment on U251 CNS, 3.88 µM; in the experiment with SN12C renal, 3.24 µM; with ACHN renal, 2.5 µM. The TGI in the experiment on HT29 colon is over 100 µM; in the experiment on SF-539 CNS it was 9.23 µM; with NCI-H522 lung it was over 100 µM; in the experiment on TK-10 renal it was 26.3 µM; with IGROV1 ovarian, over 100 µM; with UACC-257 melanoma, over 100 µM. Moreover, the TGI in the experiment with LOX IMVI melanoma, in the experiment with U251 CNS, in the experiment on SN12C renal and with ACHN renal was over 100 µM in each case.
